What follows are compounds tested on FRDA fibroblasts stressed by addition of L-buthionine-(S,R)-sulfoximine (BSO) (assay: Rescue of BSO-stressed human dermal fibroblasts from Friedreich's Ataxia patients (Calcein AM viability)). Settings: FRDA fibroblasts GM04078, 1 mM BSO, 48 h, average, compounds of the invention.
Format: cell-based
Experimental: An initial screen was performed to identify compounds effective for the amelioration of redox disorders. Test samples, 4 reference compounds (idebenone, decylubiquinone, Trolox and alpha-tocopherol), and solvent controls were tested for their ability to rescue FRDA fibroblasts stressed by addition of L-buthionine-(S,R)-sulfoximine (BSO), as described in Jauslin et al., Hum. Mol. Genet. 11(24):3055 (2002), Jauslin et al., FASEB J. 17:1972-4 (2003), and International Patent Application WO 2004/003565. […] This specific BSO-mediated cell death can be prevented by administration of antioxidants or molecules involved in the antioxidant pathway, such as alpha-tocopherol, selenium, or small molecule glutathione peroxidase mimetics. However, antioxidants differ in their potency, i.e. the concentration at which they are able to rescue BSO-stressed FRDA fibroblasts.
MEM (a medium enriched in amino acids and vitamins, catalog no. 1-31F24-I) and Medium 199 (M199, catalog no. 1-21F22-I) with Earle's Balanced Salts, without phenol red, were purchased from Bioconcept. Fetal Calf Serum was obtained from PAA Laboratories. Basic fibroblast growth factor and epidermal growth factor were purchased from PeproTech. Penicillin-streptomycin-glutamine mix, L-buthionine (S,R)-sulfoximine, (+)-alpha-tocopherol, decylubiquinone, and insulin from bovine pancreas were purchased from Sigma. Trolox (6-Hydroxy-2,5,7,8-tetramethylchromane-2-carboxylic acid) was obtained from Fluka. Idebenone was obtained from Chemo Iberica. Calcein AM was purchased from Anaspec. Cell culture medium was made by combining 125 ml M199 EBS, 50 ml Fetal Calf Serum, 100 U/ml penicillin, 100 microgram/ml streptomycin, 2 mM glutamine, 10 microgram/ml insulin, 10 ng/ml EGF, and 10 ng/ml bFGF; MEM EBS was added to make the volume up to 500 ml. A 10 mM BSO solution was prepared by dissolving 444 mg BSO in 200 ml of medium (Invitrogen, Carlsbad, Ca.) with subsequent filter-sterilization. During the course of the experiments, this solution was stored at +4° C. […]

First: CCOC(=O)CCC(C)(O)CCC1=C(C)C(=O)C(C)=C(C)C1=O (stereo not drawn)
Second: CC1=C(C)C(=O)C(CCC(C)(O)CCC(N)=O)=C(C)C1=O (stereo not drawn)
The EC50 of the first is 3.9-fold higher: 275 nM for the first, 70 nM for the second. The second is the more potent here.

With `CC1=C(C)C(=O)C(CCC2(C)CCC(=O)O2)=C(C)C1=O` (stereo not drawn) the EC50 was 270 nM.
